Measurements as given in patent US6825230B2, “Spiro and dispiro 1,2,4-trixolane antimalarials” (Medicines for Malaria Venture MMV, priority 2002, dated 2004).
≈ marks a conversion by molar mass, not a printed value. Like-named read-outs stand apart in the source and are kept apart here.

Key:
[1] = test system: chloroquine-resistant K1 strain of P. falciparum; assay: In vitro antimalarial semiautomated microdilution assay ([3H]-hypoxanthine incorporation), K1 strain; assay type: cell-based, Plasmodium falciparum; settings: Plasmodium falciparum
Experimental: (§1) Various OZ compounds were tested by the semiautomated microdilution assay against intraerythrocytic forms of Plasmodium falciparum derived from asynchronous stock cultures.
(§2) Fifty percent inhibitory concentration (IC50) were estimated by Logit regression analysis.

[2] = test system: chloroquine-sensitive NF54 strain of P. falciparum; assay: In vitro antimalarial semiautomated microdilution assay ([3H]-hypoxanthine incorporation), NF54 strain; assay type: cell-based, Plasmodium falciparum; settings: Plasmodium falciparum
Experimental: as §1, §2

[3] = test system: ANKA strain of P. berghei; assay: Single dose STI in vivo screen in infected mice; set-up: species or system Plasmodium berghei; settings: for Survival (days) 10 mg/kg SSV po: single 10 mg/kg po in SSV; for Survival (days) 10 mg/kg SSV po / Survival (days) 10 mg/kg po / Survival (days) 10 mg/kg sc: untreated 6-7 days; for Activity (%) 10 mg/kg SSV po: single 10 mg/kg po in standard suspending vehicle (SSV) on day 1 post-infection; for Survival (days) 10 mg/kg po: single 10 mg/kg po in 3% ethanol and 7% Tween 80; for Activity (%) 10 mg/kg po: single 10 mg/kg po in 3% ethanol and 7% Tween 80 on day 1 post-infection; for Survival (days) 10 mg/kg sc: single 10 mg/kg sc in 3% ethanol and 7% Tween 80; for Activity (%) 10 mg/kg sc: single 10 mg/kg sc in 3% ethanol and 7% Tween 80 on day 1 post-infection
Experimental: In the single dose STI in vivo screen, Moro SPF or NMRI mice infected with the ANKA strain of P. berghei (groups of three mice) were treated on day one post-infection with trioxolanes dissolved or suspended in 3% ethanol and 7% Tween 80. […] SSV consists of 0.5% w/v CMC, 0.5% v/v benzyl alcohol, 0.4% v/v Tween 80, and 0.9% w/v sodium chloride in water. Antimalarial activity was measured by percent reduction in parasitemia on day three post-infection and survival times compared to an untreated control group. Survival to day 30 post-infection is considered to be a cure. […] Other factors influencing antimalarial activity include the stability of carbon radicals formed by β-scission subsequent to the initial electron transfer to the peroxide bond and the influence of steric effects remote from the peroxide bond on the interactions between carbon radicals and potential drug targets.
Moro NMRI male mice (Fu Albino specific pathogen free) weighing 18±2 g were infected intravenously (i.v.) with 2×10^7 P. berghei ANKA strain-infected erythrocytes from donor mice on day 0 of the experiment. From donor mice with circa 30% parasitemia, heparinized blood was taken and diluted in physiological saline to 10^8 parasitized erythrocytes per ml. An aliquot (0.2 ml) of this suspension was injected i.v. into experimental and control groups of mice. […] Throughout the experiments, mice were kept in groups of three or five animals in Makrolon type II cages in an air-conditioned animal room at 22 to 23° C.
They were administered per os (p.o.) in a total volume of 0.01 ml per gram of mouse. The activity of the compound was determined by a variety of methods outlined in subsequent sections. Survival time was also recorded, and survival to day 30 post-infection was considered to be a cure.

[4] = K1, 72 h, read-out: IC50 (ng/ml) K1, chloroquine-resistant K1 strain, 72 h incubation
[5] = NF54, 72 h, read-out: IC50 (ng/ml) NF54, chloroquine-sensitive NF54 strain, 72 h incubation
[6] = percent reduction in parasitemia on day 3
[7] = chloroquine-resistant K1 strain, 72 h incubation, read-out: IC50 (ng/ml) K1
[8] = chloroquine-sensitive NF54 strain, 72 h incubation, read-out: IC50 (ng/ml) NF54

Compound	IC50 [1, 4]	IC50 [2, 5]	Survival (days) 3 mg/kg SSV po ([3]; single 3 mg/kg po in SSV)	Activity (%) 3 mg/kg SSV po ([3]; single 3 mg/kg po in SSV, percent reduction in parasitemia on day 3)	Survival (days) 10 mg/kg SSV po [3]	Activity (%) 10 mg/kg SSV po [3, 6]	Survival (days) 10 mg/kg po [3]	Activity (%) 10 mg/kg po [3, 6]	Survival (days) 10 mg/kg sc [3]	Activity (%) 10 mg/kg sc [3, 6]	IC50 [1, 7]	IC50 [2, 8]
NOC[C@H]1CC[C@]2(CC1)OO[C@]1(O2)C2CC3CC(C2)CC1C3 [OZ334]	28 ng/mL (≈ 90.5 nM)	20 ng/mL (≈ 64.6 nM)	6.6 days	13%	6.8 days	47%						
COC(=O)c1ccc(C2(c3ccc(C(=O)OC)c(C(=O)OC)c3)OOC3(O2)C2CC4CC(C2)CC3C4)cc1C(=O)OC (centres unmarked) [OZ106, Adamantane-2-spiro-3′-5′,5′-bis[3′,4′-di(methoxycarbonyl)phenyl]-1′,2′,4′-trioxolane]	2.2 ng/mL (≈ 3.79 nM)	1.7 ng/mL (≈ 2.93 nM)			5.0 days	0/0/0%	5.3 days	0/0/0%	5.3 days	0/0/0%		
O=C1OC2(CCC3(CC2)OOC2(O3)C3CC4CC(C3)CC2C4)c2ccccc21 (centres unmarked) [OZ149, Adamantane-2-spiro-3′-1′,2′,4′-trioxaspiro[4.5]decane-8′-spiro-1″-3″-oxo-3″H-isobenzofuran]					6.0 days	3%	7.7 days	64%	14.3 days	87%	8 ng/mL (≈ 20.9 nM)	8.8 ng/mL (≈ 23 nM)
C1C2CC3CC1CC(C2)C31OO[C@]2(CC[C@@H](CNC3CC3)CC2)O1 (some centres unmarked) [OZ253]					6.7 days	59%	7.0 days	75%	9.3 days	99.82%	0.56 ng/mL (≈ 1.68 nM)	0.45 ng/mL (≈ 1.35 nM)
OCC1(CO)COC2(CCC3(CC2)OOC2(O3)C3CC4CC(C3)CC2C4)OC1 (centres unmarked) [OZ121, Adamantane-2-spiro-3′-11′,11′-bis(hydroxymethyl)-1′,2′,4′,9′,13′-pentaoxadispiro[4.2.5.2]pentadecane]	0.96 ng/mL (≈ 2.42 nM)	0.41 ng/mL (≈ 1.03 nM)			8.0 days	98%	7.3 days	91%	7.3 days	99.61%		
NC(=O)CN(CC(N)=O)C[C@H]1CC[C@]2(CC1)OOC1(O2)C2CC3CC(C2)CC1C3 (some centres unmarked) [OZ236]	2 ng/mL (≈ 4.91 nM)	2 ng/mL (≈ 4.91 nM)			7.7 days	86%	6.3 days	89%	7.7 days	98.61%		
O=[N+]([O-])c1ccc(C2(c3ccccc3)OOC3(O2)C2CC4CC(C2)CC3C4)cc1 (centres unmarked) [OZ95, Adamantane-2-spiro-3′-5′-(4′-nitrophenyl)-5′-phenyl-1′,2′,4′-trioxolane]	2.8 ng/mL (≈ 7.12 nM)	1.3 ng/mL (≈ 3.3 nM)			6.0/6.0/6.0 days	0%	6.0/6.0/6.0 days	31%	6.0/6.0/6.0 days	49%		
Fc1ccc(NC2CCC3(CC2)OOC2(O3)C3CC4CC(C3)CC2C4)cc1 (centres unmarked) [OZ201]	2 ng/mL (≈ 5.36 nM)	3.1 ng/mL (≈ 8.3 nM)			10.3 days	100/100/100%	13 days	100/100/100%	25 days	100/100/100%		
